In DBAASP one finds MIC data, which are given here for 5 molecules.

≈ marks a conversion by molar mass, not a printed value.

Some test systems named below: Escherichia coli C25; Vibrio cholerae; Escherichia coli MG1655; Staphylococcus aureus MR.
What all share (assay): ≥ marks a high value that may be exact or a test limit, other limits are often not marked, values filed in µg/mL are converted to µM
The test system of assay [1] is Pseudomonas aeruginosa ATCC 27853.
For assay [2], the system named is Enterococcus faecium ATCC 700221.
The test system of assay [3] is Acinetobacter baumannii ATCC 17978D-5.
The test system of assay [4] is Staphylococcus aureus ATCC 33591.
Assay [5] has as its system Klebsiella aerogenes ATCC 13048.
Assay [6] concerns Pseudomonas aeruginosa ATCC 19660.
Assay [7] deals with Staphylococcus epidermidis ATCC 51625.
The subject of assay [8] is Streptococcus pneumoniae ATCC 49619.
For assay [9], the system named is Staphylococcus aureus ATCC 25923.
In assay [10] the test system is Staphylococcus aureus ATCC 43300.
In assay [11] the test system is Bacillus subtilis MTCC 14416.
Assay [12] concerns Enterococcus faecalis ATCC 29212.
In assay [13] the test system is Staphylococcus aureus MTCC 9542.
The subject of assay [14] is Pseudomonas aeruginosa CICC 11421.
The subject of assay [15] is Pseudomonas aeruginosa CICC 21625.
Assay [16] relates to Pseudomonas aeruginosa 25349.
Assay [17] concerns Staphylococcus aureus ATCC 29213.
Assay [18] has as its system Escherichia coli ATCC 25922.
Assay [19] deals with Pseudomonas aeruginosa CICC 21630.
The test system of assay [20] is Pseudomonas aeruginosa CICC 11411.
In assay [21] the test system is Pseudomonas aeruginosa CICC 11431.
The subject of assay [22] is Pseudomonas aeruginosa 21328.
The test system of assay [23] is Pseudomonas aeruginosa CICC 10419.
In assay [24] the test system is Candida albicans ATCC 5314.

A word on the MIC: it is the least concentration at which growth counts as inhibited. A high value points to a need for much substance. Turning to `C[C@H](NC(=O)[C@H](Cc1ccccc1)NC(=O)[C@H](C)NC(=O)[C@@H](N)Cc1ccccc1)C(=O)N[C@@H](Cc1ccccc1)C(=O)N[C@@H](C)C(=O)N[C@@H](Cc1ccccc1)C(=O)N[C@@H](CCCCN)C(=O)N[C@@H](CCCCN)C(=O)N[C@@H](C)C(=O)N[C@@H](Cc1ccccc1)C(=O)N[C@@H](CCCCN)C(=O)N[C@@H](CCCCN)C(=O)N[C@@H](Cc1ccccc1)C(=O)N[C@@H](CCCCN)C(=O)N[C@@H](CCCCN)C(=O)N[C@@H](C)C(=O)N[C@@H](Cc1ccccc1)C(=O)N[C@@H](CCCCN)C(=O)N[C@@H](CCCCN)C(=O)N[C@@H](C)C(=O)N[C@@H](Cc1ccccc1)C(=O)O` [FAFAFAFKKAFKKFKKAFKKAF], the MIC in assay [1] is over 24.2 µM; in assay [2] it was 3.02 µM (≈ 8 µg/mL); in assay [3], 0.755 µM (≈ 2 µg/mL); in assay [4], 6.04 µM (≈ 16 µg/mL); in assay [5] it was 24.2 µM (≈ 64 µg/mL); in [6] it was 24.2 µM (≈ 64 µg/mL). The values for the MIC in [7] and in assay [8] were 1.51 µM (≈ 4 µg/mL) and 24.2 µM (≈ 64 µg/mL), respectively.
On to `CC[C@H](C)[C@H](NC(=O)CNC(=O)[C@H](CCCN=C(N)N)NC(=O)[C@H](Cc1ccc(O)cc1)NC(=O)[C@@H](NC(=O)[C@H](CCCN=C(N)N)NC(=O)[C@H](Cc1ccccc1)NC(=O)[C@H](Cc1c[nH]c2ccccc12)NC(=O)[C@H](CCCCN)NC(=O)[C@@H](N)CCCCN)C(C)C)C(=O)N[C@@H](Cc1ccc(O)cc1)C(=O)N[C@@H](CCCN=C(N)N)C(=O)N[C@@H](CCCN=C(N)N)C(=O)N[C@@H](CCCN=C(N)N)C(N)=O` [KKWFRVYRGIYRRR], for which the MIC in the assay with Escherichia coli C25 was at least 63 µM; in assay [9], 16 µM (≈ 31.7 µg/mL).
With `CC[C@H](C)[C@@H]1NC(=O)[C@H](CCCCN)NC(=O)[C@@H](NC(=O)[C@H](CC(C)C)NC(=O)[C@@H](NC(=O)[C@H](CCC(N)=O)NC(=O)[C@@H]2CCCN2C(=O)[C@H](CC(C)C)NC(=O)[C@H](Cc2ccccc2)NC(=O)[C@H](CC(N)=O)NC(=O)[C@H](C)NC(=O)[C@H](C)NC(=O)[C@H](CC(C)C)NC(=O)CNC(=O)[C@H](C)NC(=O)[C@@H](NC(=O)[C@@H](N)Cc2c[nH]c3ccccc23)[C@@H](C)CC)[C@@H](C)CC)CSSC[C@@H](C(N)=O)NC(=O)[C@H](CCCCN)NC(=O)[C@H](CCCN=C(N)N)NC(=O)[C@H](C)NC1=O` [WIAGLAANFLPQILCKIARKC], the MIC in assay [10] is 10.7 µM (≈ 25 µg/mL); in assay [1], over 42.9 µM; with Vibrio cholerae it was 10.7 µM (≈ 25 µg/mL); in [11] it was 21.5 µM (≈ 49.9 µg/mL); in [12] it was 21.5 µM (≈ 49.9 µg/mL); in assay [13], 5.37 µM (≈ 12.5 µg/mL). Further, the MIC with Escherichia coli MG1655 is at least 42.9 µM.
As to `NC(=O)[C@H](Cc1c[nH]c2ccccc12)NC(=O)[C@H](CCCN=C(N)N)NC(=O)[C@H](CCCN=C(N)N)NC(=O)[C@H](Cc1c[nH]c2ccccc12)NC(=O)[C@H](CCCN=C(N)N)NC(=O)[C@H](CCCN=C(N)N)NC(=O)[C@H](CCCN=C(N)N)NC(=O)[C@H](Cc1c[nH]c2ccccc12)NC(=O)[C@H](CCCN=C(N)N)NC(=O)[C@H](CCCN=C(N)N)NC(=O)[C@H](CCCN=C(N)N)NC(=O)[C@H](Cc1c[nH]c2ccccc12)NC(=O)[C@H](CCCN=C(N)N)NC(=O)[C@H](CCCN=C(N)N)NC(=O)[C@@H](N)Cc1c[nH]c2ccccc12` [WRRWRRRWRRRWRRW], the MIC in assay [14] is at least 102 µM; in assay [1], 1.59 µM (≈ 4 µg/mL); in assay [15] it was at least 102 µM; in assay [16] it was 12.7 µM (≈ 32 µg/mL); in assay [17] it was 6.37 µM (≈ 16 µg/mL); in assay [18], 12.7 µM (≈ 32 µg/mL). Besides, the MIC in [19] is 6.37 µM (≈ 16 µg/mL); in assay [20], at least 102 µM; in [21], 3.19 µM (≈ 8 µg/mL); in [22], at least 102 µM; in assay [23] it was at least 102 µM.
`CC[C@H](C)[C@H](NC(=O)[C@@H](NC(=O)[C@H](CCCN=C(N)N)NC(=O)[C@H](Cc1ccccc1)NC(=O)[C@@H](N)Cc1ccc(O)cc1)[C@@H](C)O)C(=O)N[C@@H](CCCN=C(N)N)C(=O)N[C@@H](CCCN=C(N)N)C(=O)N[C@@H](Cc1ccccc1)C(=O)N[C@@H](Cc1ccccc1)C(=O)N[C@@H](CCCCN)C(=O)N[C@@H](CCCCN)C(=O)N[C@@H](CC(C)C)C(=O)N[C@@H](Cc1ccccc1)C(=O)N[C@@H](CCCCN)C(=O)N[C@H](C(=O)N[C@@H](CC(C)C)C(=O)N[C@@H](CCCCN)C(=O)N[C@@H](CCCCN)C(N)=O)[C@@H](C)O` [YFRTIRRFFKKLFKTLKK]: the MIC (in the assay on Staphylococcus aureus MR; in assay [9]; in assay [24]) was 26.4 µM (≈ 64 µg/mL) each time.
